Laboratory results published in patent publication US12023391B2, “Alpha(v)beta(6) integrin-binding peptides and methods of use thereof” (The Regents of the University of California, priority 2016, dated 2024).
Read-outs that look alike come from different tables or passages of the source. Residues, ends and D or L forms follow the SMILES beside them. *: point of attachment. Benzoyl(4-F) = O=C(c1ccc(F)cc1)*

Legend:
[1] = biological target: (Homo sapiens, UniProt P06756+P18084); assay: Competitive binding ELISA with purified integrin, αvβ4 (so in the source)
Method: (§1) Small aliquots (50 mg, ˜150,000 beads) were incubated with a mixture of red fluorescent DX3 ITGβ6 mCherry (αvβ6-positive) and green fluorescent DX3 EmGFP (αvβ6-negative) cells for 3 hours and evaluated under a fluorescent microscope. Beads that were covered only by red (i.e. αvβ6-positive) cells were isolated; these beads were subsequently characterized by Edman sequencing. Following synthesis of the identified peptides, competitive binding ELISA was performed with purified integrin to evaluate binding specificities for the target αvβ6 integrin as well as closely related αv-integrins.
(§2) Anti-αv capture antibody P2W7 (5 μg/mL, Novus Biologicals) was coated onto Nunc MaxiSorp 96-well plates, followed by blocking with BSA overnight at 4° C. All wells were washed 3 times with PBS, followed by plating of purified integrin (3 μg/mL) and incubating at room temperature in a humid chamber for 1 hour. Peptide solutions, titrated (1 μM-1 pM for αvβ6 integrin and 100 μM-100 pM for αvβ3 integrin) and mixed with biotinylated natural ligand, were added to the integrin-coated wells in triplicate. After incubating for an hour at room temperature, the plate was washed 3 times with wash buffer. Captured biotinylated natural ligand was detected with ExtrAvidin-HRP and developed with TMB substrate. Half-maximal inhibitory concentration (IC50) of peptides was determined fitting to sigmoidal dose-response model in GraphPad Prism 6.0 (FIG. 5A).

αvβ3 integrin = αvβ3 integrin (Homo sapiens, UniProt P05106+P06756); assay: Competitive binding ELISA with purified integrin, αvβ3
Method: as §1, with “As described further below, a 9-mer XXDLXXLXK(FB) (SEQ ID NO: 23) peptide library was assembled on TentaGel resin (1 g, ˜3,000,000 beads) using standard Fmoc chemistry. Small” for “Small”
(§3) Anti-αv capture antibody P2W7 (5 μg/mL, Novus Biologicals) was coated onto Nunc MaxiSorp 96-well plates, followed by blocking with BSA overnight at 4° C. All wells were washed 3 times with PBS, followed by plating of purified integrin (3 μg/mL) and incubating at room temperature in a humid chamber for 1 hour. […] Captured biotinylated natural ligand was detected with ExtrAvidin-HRP and developed with TMB substrate. Half-maximal inhibitory concentration (IC50) of peptides was determined fitting to sigmoidal dose-response model in GraphPad Prism 6.0 (FIG. 5A). […]

[2] = tested on: DX3puroβ6 (αvβ6-positive) and DX3 puro (αvβ6-negative) cells; assay: Flow cytometry binding to DX3puroβ6 and DX3 puro cells; assay type: cell-based, human; conditions: peptide concentrations of 10 μM and 100 μM
Excerpt: FIGS. 8A and 8B show binding of a peptide labeled with FAM-X ([…]-FAM-X; SEQ ID NO:15) to DX3puroβ6 and DX3 puro cells. […] 150,000 cells were used in each experiment. […] These studies used 75,000, 150,000, or 300,000 cells per experiment. The control experiment used 300,000 unstained cells.
Flow cytometry was used to assay the binding of a peptide labeled with FAM-X ([…]-FAM-X; SEQ ID NO:15) to DX3puroβ6 and DX3 puro cells.

αvβ1 = αvβ1 (Homo sapiens, UniProt P05556+P06756); assay: Competitive binding ELISA with purified integrin, αvβ1
Method: as §1, with “As described further below, a 9-mer XXDLXXLXK(FB) (SEQ ID NO: 23) peptide library was assembled on TentaGel resin (1 g, ˜3,000,000 beads) using standard Fmoc chemistry. Small” for “Small”
as §3

[3] = Log P of radiolabeled peptide; assay type: physicochemical; conditions: peptide radiolabeled with [18F]fluorobenzoic acid
Method: (§4) Based on selectivity profiles of all peptides, the ST1-62 peptide was selected to move forward for radiolabeling with [^18F]fluorobenzoic acid for log P, serum stability, and cell binding studies. Log P=−1.09±0.02 (FIG. 6B). Serum stability of the peptide was determined at 1 hour after incubating with mouse serum at 37° C. (FIG. 7A).

[4] = Serum stability in mouse serum, HPLC analysis; assay type: in vitro ADME; conditions: [18F]-radiolabeled peptide, 37° C., an hour
Method: Serum stability study analysis of Peptide 1 (ST1-62) (SEQ ID NO:2) was performed by first incubating the radiolabeled peptide ([^18F]; 25 μCi) with commercially available mouse serum at 37° C. for an hour. The radiotracer was removed from serum by precipitating out the protein with cold EtOH and then injected into a HPLC for analysis.
as §4

αvβ6 integrin = αvβ6 integrin (Homo sapiens, UniProt P06756+P18564); assay: Competitive binding ELISA with purified integrin, αvβ6
Method: as §1
as §2, with “After incubating for an hour at room temperature, the plate was washed 3 times with wash buffer.” left out

Question: With `CSCC[C@H](NC(=O)[C@H](CC(C)C)NC(=O)[C@H](CC(=O)O)NC(=O)CNC(=O)[C@@H](N)CCCNC(=N)N)C(=O)N[C@@H](CCCCN)C(=O)N[C@@H](CC(C)C)C(=O)N[C@@H](C)C(=O)N[C@@H](CCCCNC(=O)c1ccc(F)cc1)C(N)=O` [ST1-59] (H-RGDLMKLAK(Benzoyl(4-F))-NH2) as the compound, how does the IC50 [1] read?
Answer: > 100 µM

Question: What does the source list for `CC(C)C[C@H](NC(=O)[C@H](CC(=O)O)NC(=O)CNC(=O)[C@@H](N)CCCNC(=N)N)C(=O)N[C@@H](C)C(=O)N[C@@H](CC(=O)O)C(=O)N[C@@H](CC(C)C)C(=O)N[C@@H](CCCNC(=N)N)C(=O)N[C@@H](CCCCNC(=O)c1ccc(F)cc1)C(N)=O` [ST1-60] (H-RGDLADLRK(Benzoyl(4-F))-NH2)?
Answer: IC50 ([1]; competitive binding ELISA, read-out: IC50 αvβ4): > 100 µM; IC50 (αvβ3 integrin): 0.5 µM

Question: For “VGDLTYLKK-FAM-X (FAM label; C-term FAM-X, fluorescein dye/label) [Fluorescent labeled peptide]”, which “Binding to αvβ6-positive versus αvβ6-negative cells” value [2] is on record?
Answer: increased binding to the αvβ6-positive cells than the αvβ6-negative cells

Question: What does the source list for `CC(C)C[C@H](NC(=O)[C@H](Cc1ccc(O)cc1)NC(=O)[C@@H](NC(=O)[C@H](CC(C)C)NC(=O)[C@H](CC(=O)O)NC(=O)CNC(=O)[C@@H](N)C(C)C)[C@@H](C)O)C(=O)N[C@@H](CCCCN)C(=O)N[C@@H](CCCCNC(=O)c1ccc(F)cc1)C(N)=O` [ST1-62]?
Answer: IC50 (αvβ1): > 100 µM; IC50 [1]: > 100 µM; logP [3]: -1.09 ± 0.02; Serum stability [4]: cleaved by proteases within an hour

Question: With `CN[C@H](C(=O)NCC(=O)N[C@@H](CC(=O)O)C(=O)N[C@@H](CC(C)C)C(=O)N[C@H](C(=O)N[C@@H](Cc1ccc(O)cc1)C(=O)N[C@@H](CC(C)C)C(=O)N[C@@H](CCCCN)C(=O)N[C@@H](CCCCNC(=O)c1ccc(F)cc1)C(N)=O)[C@@H](C)O)C(C)C` as the compound, how does the IC50 (αvβ6 integrin) read?
Answer: 0.5 µM

Question: With `CC(C)C[C@H](NC(=O)[C@H](CCC(=O)O)NC(=O)[C@H](CCCNC(=N)N)NC(=O)[C@H](CC(C)C)NC(=O)[C@H](CC(=O)O)NC(=O)CNC(=O)[C@@H](N)CCCNC(=N)N)C(=O)N[C@@H](C)C(=O)N[C@@H](CCCCNC(=O)c1ccc(F)cc1)C(N)=O` [ST1-61] (H-RGDLRELAK(Benzoyl(4-F))-NH2) as the compound, how does the IC50 [1] read?
Answer: > 100 µM
